Here are results for twelve compounds from patent publication US8097733B2, “Pyrazole derivatives as 5-LO-inhibitors” (Pfizer Inc., priority 2007, dated 2012).

In one assay the target is T1, recombinant human 5-LOX (Homo sapiens, UniProt P09917).
T1 sequence (P09917 1-674): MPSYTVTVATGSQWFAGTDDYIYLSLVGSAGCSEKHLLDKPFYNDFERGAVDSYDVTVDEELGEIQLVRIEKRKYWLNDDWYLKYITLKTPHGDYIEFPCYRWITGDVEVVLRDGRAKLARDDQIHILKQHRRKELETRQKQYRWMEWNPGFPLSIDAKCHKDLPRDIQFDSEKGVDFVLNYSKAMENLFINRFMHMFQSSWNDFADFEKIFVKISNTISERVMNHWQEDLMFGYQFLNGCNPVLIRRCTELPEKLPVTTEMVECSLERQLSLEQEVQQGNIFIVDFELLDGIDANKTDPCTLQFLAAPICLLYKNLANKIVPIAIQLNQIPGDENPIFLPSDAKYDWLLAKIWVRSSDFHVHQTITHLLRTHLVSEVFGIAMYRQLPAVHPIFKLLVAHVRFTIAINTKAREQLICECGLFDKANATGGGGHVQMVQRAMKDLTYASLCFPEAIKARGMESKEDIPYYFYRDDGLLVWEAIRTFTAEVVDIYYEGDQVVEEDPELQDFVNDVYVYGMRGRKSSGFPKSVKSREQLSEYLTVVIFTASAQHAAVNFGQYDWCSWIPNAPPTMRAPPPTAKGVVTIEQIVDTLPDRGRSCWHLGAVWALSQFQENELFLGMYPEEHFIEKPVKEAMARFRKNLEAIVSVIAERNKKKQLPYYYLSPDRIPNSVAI
The experiment in a line: Fluorescence Intensity 5-LOX Enzyme Assay. The format is biochemical. The settings on record: crude lysate of recombinant human 5-LOX; highest inhibitor concentration tested typically 25 μM. In outline:
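Crude lysate enzyme with H2DCFDA 10 μM (5 min dye pre-incubation), inhibitor pre-incubated 10 min; reaction started with 3 μM arachidonic acid plus 10 μM ATP in Tris pH 7.5, CaCl2, EDTA, 20 min at room temperature, acetonitrile stop. Fluorescein fluorescence; 7-point 4-parameter IC50, top 25 μM, 2.5% DMSO.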

Assay [1] has as its system human whole blood (leukotriene and prostaglandin levels). The experiment in a line: Eicosanoid production from human whole blood. Type of assay: cell-based. The settings on record: human whole blood stimulated with calcium ionophore A23187 and arachidonic acid; ELISA. Here is the method: Human whole blood is collected in 10 ml heparin tubes (Vacutainer, Becton Dickenson). Collected blood is pooled and 80 μL is dispensed into each well of 384 well polypropylene plates. A PlateMate is used to add 2 μL of compound solution in DMSO to the 80 μL of blood in the polypropylene plates. The plate, with blood and compound added, is incubated at room temperature for 10 minutes. 2 μL of a calcimycin (800 ng/ml) (A23187 C-7522, Sigma) and arachidonic acid (30 μM) (NU-Chek PREP, INC. S-1133) solution in 60% ethanol is then added to the blood using a Micromultidrop. The plates are then incubated at 37° C. in a shallow water bath for 15 minutes. Plates are then spun at 800 g for 10 minutes at 4° C. Supernatant is removed and assayed by Elisa (Caymen Chemical).
Eicosanoid Production from Human Whole Blood:
Human whole blood was collected from healthy or asthmatic human donors in 10 ml heparinized tubes (Vacutainer tubes; Becton Dickenson, Franklin Lakes, N.J.). Collected blood was pooled and 80 μL was dispensed into each well of 384 well polypropylene plates using a Multi-prop™ 384-well dispenser (Titertek, Huntsville, Ala.). Varying concentrations of compounds were dissolved in DMSO then 2 μL/well was added to the blood using a PlateMate Plus™ automated pipetting station (Matrix Technologies, Hudson, N.H.). The compounds were preincubated with the blood at room temperature for 10 minutes followed by stimulation with 40 μM calcium ionophore (A23187, Sigma Chemical Co, St. Louis, Mo., Cat. # C-7522) and 30 μM arachidonic acid (S-1133, NU-Chek PREP, Inc., Elysian, MN, Cat. # S-1133) dissolved in 60% ethanol. After 15 min incubation at 37° C. in a shallow water bath, the blood was centrifuged at 8009 for 10 minutes at 4° C., the supernatants collected, and leukotriene and prostaglandin levels measured by ELISA according to the manufacturer's directions (Cayman Chemical Company, Ann Arbor, Mich.). The assay was performed at a final concentration of 2.5% DMSO.

What is called IC50 is the concentration at which inhibition is half-maximal. Turning to `Cn1nccc1C(=O)c1cc(F)c(Sc2cccc(C3(C(N)=O)CCOCC3)c2)cc1F` [Example 63, 4-[3-({2,5-difluoro-4-[(1-methyl-1H-pyrazol-5-yl)carbonyl]phenyl}thio)phenyl]tetrahydro-2H-pyran-4-carboxamide], the IC50 on recombinant human 5-LOX amounted to 256 nM; in assay [1] it was 1260 nM.
The corresponding values for `CNC(=O)C1(c2cccc(Sc3ccc(C(=O)c4ccnn4C)c(OC)c3)c2)CCOCC1` [Example 64, 4-[3-({3-methoxy-4-[(1-methyl-1H-pyrazol-5-yl)carbonyl]phenyl}thio)phenyl]-N-methyltetrahydro-2H-pyran-4-carboxamide] are 470 nM and 8270 nM.
On to `CNC(=O)C1(c2cccc(Sc3ccc(C(=O)c4ccnn4C)c(Cl)c3)c2)CCOCC1` [Example 65, 4-[3-({3-chloro-4-[(1-methyl-1H-pyrazol-5-yl)carbonyl]phenyl}thio)phenyl]-N-methyltetrahydro-2H-pyran-4-carboxamide], for which the half-inhibitory concentration (IC50) at recombinant human 5-LOX was 81.3 nM; in assay [1] it was 1060 nM.
The corresponding values for `Cn1nccc1C(=O)c1ccc(Sc2cccc(C3(C(N)=O)CCOCC3)c2)c(F)c1` [Example 67, 4-[3-({2-fluoro-4-[(1-methyl-1H-pyrazol-5-yl)carbonyl]phenyl}thio)phenyl]tetrahydro-2H-pyran-4-carboxamide] are 209 nM and 1210 nM.
For `Cn1nccc1C(=O)c1ccc(Sc2cccc(C3(C(N)=O)CCOCC3)c2)c(Cl)c1` [Example 68, 4-[3-({2-chloro-4-[(1-methyl-1H-pyrazol-5-yl)carbonyl]phenyl}thio)phenyl]tetrahydro-2H-pyran-4-carboxamide], the results for the concentration for half-maximal inhibition (IC50) (on recombinant human 5-LOX; in assay [1]) were 803 nM and 2480 nM, respectively.
On to `Cn1nccc1C(=O)c1ccc(Sc2cccc(C3(C(N)=O)CCOCC3)c2)cn1` [Example 69, 4-[3-({6-[(1-methyl-1H-pyrazol-5-yl)carbonyl]pyridin-3-yl}thio)phenyl]tetrahydro-2H-pyran-4-carboxamide], for which the IC50 at recombinant human 5-LOX came to 1590 nM; in assay [1] it was 3350 nM.
The corresponding values for `COc1cc(C(=O)c2ccnn2C)ccc1Sc1cccc(C2(C(N)=O)CCOCC2)c1` [Example 70, 4-[3-({2-methoxy-4-[(1-methyl-1H-pyrazol-5-yl)carbonyl]phenyl}thio)phenyl]tetrahydro-2H-pyran-4-carboxamide] are 740 nM and 3130 nM.
The corresponding values for `COc1cc(Sc2cccc(C3(C(N)=O)CCOCC3)c2)ccc1C(=O)c1ccnn1C` [Example 71, 4-[3-({3-methoxy-4-[(1-methyl-1H-pyrazol-5-yl)carbonyl]phenyl}thio)phenyl]tetrahydro-2H-pyran-4-carboxamide] are 430 nM and 1980 nM.
With `CNC(=O)C1(c2cccc(Sc3ccc(C(=O)c4ccnn4C)cc3)c2)CCOCC1` [Example 72, N-methyl-4-[3-({4-[(1-methyl-1H-pyrazol-5-yl)carbonyl]phenyl}thio)phenyl]tetrahydro-2H-pyran-4-carboxamide], the IC50 at recombinant human 5-LOX came to 109 nM; in assay [1], 6360 nM.
Regarding `C[C@H]1C[C@@](C(N)=O)(c2cccc(Sc3ccc(-c4c(Br)cnn4C)cc3)c2F)CCO1` [Example 73, (2S,4R)-4-(3-{[4-(4-bromo-1-methyl-1H-pyrazol-5-yl)phenyl]thio}-2-fluorophenyl)-2-methyltetrahydro-2H-pyran-4-carboxamide], the concentration for half-maximal inhibition (IC50) at recombinant human 5-LOX came to 13.4 nM; in assay [1] it was 672 nM.
The corresponding values for `Cn1ncc(Br)c1-c1ccc(Sc2cccc(C3(C(N)=O)CCOCC3)c2)cc1` [Example 76, 4-(3-{[4-(4-bromo-1-methyl-1H-pyrazol-5-yl)phenyl]thio}phenyl)tetrahydro-2H-pyran-4-carboxamide] are 108 nM and 727 nM.
As to `Cn1ncc(Br)c1-c1ccc(Sc2cccc(C3(C(N)=O)CCOCC3)c2)cc1F` [Example 78, 4-(3-{[4-(4-bromo-1-methyl-1H-pyrazol-5-yl)-3-fluorophenyl]thio}phenyl)tetrahydro-2H-pyran-4-carboxamide], the figures for the IC50 (at recombinant human 5-LOX; in assay [1]) were 153 nM and 1380 nM, respectively.
